Experimental data as given in ChEMBL document CHEMBL3044883, “Synthesis, spectral, theoretical, and antimicrobial screening of some heterocyclic oximes” (2011).
Converted amounts (≈) assume the structure as drawn.

Assays:
Type in all cases: functional
Rhizopus = test: Antifungal activity against Rhizopus after 72 to 96 hr by two-fold serial dilution method
Aspergillus flavus = test: Antifungal activity against Aspergillus flavus after 72 to 96 hr by two-foldserial dilution method
Staphylococcus aureus = test: Antibacterial activity against Staphylococcus aureus after 24 hr by two fold serial dilution method
Pseudomonas aeruginosa = test: Antibacterial activity against Pseudomonas aeruginosa after 24 hr by two-fold serial dilution method
Escherichia coli = test: Antibacterial activity against Escherichia coli after 24 hr by two-fold serial dilution method
Klebsiella pneumoniae = test: Antibacterial activity against Klebsiella pneumoniae after 24 hr by two fold serial dilution method
Aspergillus niger = test: Antifungal activity against Aspergillus niger after 72 to 96 hr by two-foldserial dilution method

SMILES	MIC (Rhizopus)	MIC (Aspergillus flavus)	MIC (Staphylococcus aureus)	MIC (Pseudomonas aeruginosa)	MIC (Escherichia coli)	MIC (Klebsiella pneumoniae)	MIC (Aspergillus niger)
CC1/C(=N\O)CC(c2ccco2)N(C=O)C1c1ccco1 (centres undefined)	50 µg/mL (≈ 173 µM)	50 µg/mL (≈ 173 µM)	100 µg/mL (≈ 347 µM)	100 µg/mL (≈ 347 µM)	50 µg/mL (≈ 173 µM)	100 µg/mL (≈ 347 µM)	25 µg/mL (≈ 86.7 µM)
CCC1/C(=N\O)CC(c2ccco2)N(C=O)C1c1ccco1 (centres undefined)	25 µg/mL (≈ 82.7 µM)	50 µg/mL (≈ 165 µM)	100 µg/mL (≈ 331 µM)	100 µg/mL (≈ 331 µM)	50 µg/mL (≈ 165 µM)	50 µg/mL (≈ 165 µM)	25 µg/mL (≈ 82.7 µM)
CC(C)C1/C(=N\O)CC(c2ccco2)N(C=O)C1c1ccco1 (centres undefined)	50 µg/mL (≈ 158 µM)	12.5 µg/mL (≈ 39.5 µM)	50 µg/mL (≈ 158 µM)	50 µg/mL (≈ 158 µM)	25 µg/mL (≈ 79 µM)	25 µg/mL (≈ 79 µM)	12.5 µg/mL (≈ 39.5 µM)
O=CN1C(c2ccco2)C/C(=N/O)C(Cc2ccccc2)C1c1ccco1 (centres undefined)	50 µg/mL (≈ 137 µM)	25 µg/mL (≈ 68.6 µM)	25 µg/mL (≈ 68.6 µM)	25 µg/mL (≈ 68.6 µM)	25 µg/mL (≈ 68.6 µM)	25 µg/mL (≈ 68.6 µM)	25 µg/mL (≈ 68.6 µM)
C[C@@H]1[C@H](O)[C@@H](C)/C=C/C=C/C=C/C=C/C=C/C=C/C=C/[C@H](O[C@@H]2O[C@H](C)[C@@H](O)[C@H](N)[C@@H]2O)C[C@@H]2O[C@](O)(C[C@@H](O)C[C@@H](O)[C@H](O)CC[C@@H](O)C[C@@H](O)CC(=O)O[C@H]1C)C[C@H](O)[C@H]2C(=O)O [AMPHOTERICIN B]	50 µg/mL (≈ 54.1 µM)	25 µg/mL (≈ 27.1 µM)					50 µg/mL (≈ 54.1 µM)
O=C(O)c1cn(C2CC2)c2cc(N3CCNCC3)c(F)cc2c1=O [CIPROFLOXACIN]			50 µg/mL (≈ 151 µM)	50 µg/mL (≈ 151 µM)	25 µg/mL (≈ 75.4 µM)		
